Experimental data from patent publication US9545395B2, “Method and composition for enhancement of male erectile function” (priority 2008, dated 2017).

Test system: male erectile function (penis)
Experiment: Clinical observations and case reports (Patients A-G): erectile response of men after local or systemic application
Type: in vivo, man
Conditions: for persistence of improvements after the last injection: after last IGF1 injection
[1] = Patient C, severe erectile dysfunction, maximal doses, before treatment
[2] = Patient C, maximal oral doses with daily topical androgens
[3] = Patient D, maximal oral doses combined with intracavernosal injections, before local IGF1
[4] = Patient D, oral medication without intracavernosal injections, after local IGF1
[5] = Patient D, oral medications, baseline
[6] = Patient G, oral medication, baseline
[7] = Patient E, four weekly IGF1 injections plus 2.5% testosterone cream

Molecule: CN1CC(=O)N2[C@H](c3ccc4c(c3)OCO4)c3[nH]c4ccccc4c3C[C@@H]2C1=O [Cialis]
- erectile response [1]: not having any erections
- erectile response [2]: still could not function
- erectile response [3]: frequently going soft during intercourse
- erectile response [4]: getting usable erections
- erectile response [5]: not responding
- erectile response [6]: not able function sexually

Molecule: CCCc1nc(C)c2c(=O)[nH]c(-c3cc(S(=O)(=O)N4CCN(CC)CC4)ccc3OCC)nn12 [Levitra]
- erectile response [1]: not having any erections
- erectile response [2]: still could not function
- erectile response [3]: frequently going soft during intercourse
- erectile response [4]: getting usable erections
- erectile response [5]: not responding
- erectile response [6]: not able function sexually

Molecule: C[C@]12CC[C@H]3[C@@H](CCC4=CC(=O)CC[C@@]43C)[C@@H]1CC[C@@H]2O [Testosterone]
- erectile function after about a month (Patient B, 10 mg Testosterone + 6 mcg LR3 IGF1 + 6 mcg PGE1 IC, 2-3 times per week): able to have sexual intercourse without any medications
- erectile response (Patient B, 10 mg Testosterone added to IC mixture of 6 mcg LR3 IGF1 plus 6 mcg PGE1, 2-3 times per week): dramatically harder and firmer erections

Molecule: CCCc1nn(C)c2c(=O)[nH]c(-c3cc(S(=O)(=O)N4CCN(C)CC4)ccc3OCC)nc12 [Viagra]
- erectile response [1]: not having any erections
- erectile response [2]: still could not function
- erectile response [3]: frequently going soft during intercourse
- erectile response [4]: getting usable erections
- erectile response [5]: not responding
- erectile response [6]: not able function sexually

Molecule: CCCCC[C@H](O)/C=C/[C@H]1[C@H](O)CC(=O)[C@@H]1CCCCCCC(=O)O [prostaglandin E1]
- erection firmness (Patient A (person one), 1.5 ug prostaglandin E1 intracavernosally alone): 70-75%
- erection firmness (Patient B, venous leakage, 6 ug prostaglandin E1 intracavernosally alone): 60%
- duration of erection (Patient B, 6 ug prostaglandin E1 intracavernosally alone): about 30 mins
- erectile response (Patient C, maximum doses of PGE1 40 ug/ml plus triple mix papavarine, atropine, phentolamine): unable to obtain a usable erection

Molecule: Growth Hormone: Growth Hormone injections daily (Human Growth Hormone)
- erectile function (Patient D, daily Growth Hormone injections, 1 year): did not report a significant improvement in their erectile function

Molecule: IGF1: IGF-1 (Somatomedin-C), full length protein of 70 amino acids in a single chain with three intramolecular disulfide bridges
- erectile response (Patient C, 10-20 ug IGF-1 or 6-10 ug LR3 IGF1 sub-cutaneously plus topical 1% testosterone gel, 3-4 times per week, one month): erections dramatically improved
- reduction of intracavernosal medication dose (Patient D, after penile and intracavernosal IGF1 (5-10 ug combined with intracavernosal injections)): over 50%
- erectile function (Patient D, some of the daily 50-100 ug IGF1 injections applied intermittently into the penis): immediately experienced improved erectile function
- erectile response (Patient D, systemic IGF1 50-100 ug/day subcutaneously in abdomen, with intracavernosal meds): not getting adequate erections
- persistence of improvements after the last injection (Patient E): persisted for several weeks
- duration of erection after an intracavernosal injection [7]: over 40 minutes
- hardness of erection after an intracavernosal injection [7]: over 80%
- erectile function (Patient E, four weekly subcutaneous IGF1 injections into penis shaft plus 2.5% testosterone cream twice daily): dramatically improved the patient's erectile function
- persistence of improvements after the last injection (Patient G): persist for several weeks
- erectile function (Patient G, twice weekly subcutaneous 25 ug IGF1 into penis shaft, after Dihydrotestosterone cream): immediately began experiencing firmer spontaneous erections
- time to functional erections without the need for PDE5's (men relying on PDE5's, higher locally applied penile doses): 1-2 weeks
- time after discontinuation until improvement noticeably started weakening (men who had used only a couple of doses, essentially gone after a month): 1-2 weeks
- erectile function (men, 50-100 μg once per week sub-cutaneously or subdermally in the penis): dramatic improvement in their erectile function
